Data reported in US11730751B2, “Treating and preventing motor neuron diseases using nicotinamide riboside” (Elysium Health, Inc., priority 2017, dated 2023).

Legend:
Assay type in all cases: in vivo
[1] = test system: transgenic SOD1 G93A mice; experiment: Electrophysiological measurements (CMAP, gastrocnemius muscle after sciatic nerve stimulation) in SOD1 mice; details: in words, FIG. 9
Method: Nicotinamide riboside, pterostilbene, and resveratrol were administered orally: 185 mg of nicotinamide riboside and/or 30 mg of pterostilbene or resveratrol per Kg per day were administered to the mice. Changes over time in evoked Compound Motor Action Potential (CMAP) in the gastrocnemius muscle after stimulation of the sciatic nerve were monitored at P50 (week 8) and […] (week 18). Recordings were made on a 2-channel electromyography system (Keypoint portable; Medtronic, Skovlunde, Denmark), with the high-frequency filter set at 5 kHz and the low-frequency filter set at 2 Hz. Electric stimulation produces artifacts; to reduce them, rectangular monophase electric pulses with a pulse width of 0.04 ms were used. For CMAP measurements the stimulation electrode was placed on the nerve at distance of 1 cm from the recording electrode placed on the gastrocnemius muscle through percutaneous puncture in the distal third of the paw, ipsilaterally to the surgical procedure, with a coaxial needle. The data of CMAP amplitude were expressed in millivolts, the data of latency were expressed in milliseconds and the data of nerve conduction velocity were expressed in meters per second (m/s). The number of animals tested per time point and group was of n=4.

[2] = test system: transgenic SOD1 G93A mice; experiment: Motor behavior and performance tests in SOD1 mice (FIG. 3-9); details: in words; for motor functions of SOD1 mice: FIG. 3-9, benefits only in the last weeks of the experiment
From the text: (§1) 1. B6.Cg-Tg(SOD1*G93A)1Gur/J (https://www.jax.org/strain/004435)
(§2) Mice hemizygous for this SOD1-G93A (also called G93A-SOD1) transgene were viable and fertile, with transgenic expression of a G93A mutant form of human SOD1. This founder line (often referred to as G1H) was reported to have high transgene copy number. […] Motor neuron degeneration has been associated with function and/or degeneration of astrocytes, the major glial cell type of the nervous system. […] Female hemizygotes were poor breeders, and rarely produced more than one litter before the onset of disease. […] The pattern of gene expression in SOD1G93A activated microglia represented a unique ALS-specific signature. These SOD1-G93A (also called G93A-SOD1) transgenic mice were useful in studying neuromuscular disorders, including Amyotrophic Lateral Sclerosis.
(§3) Nicotinamide riboside, pterostilbene, and resveratrol were administered orally: 185 mg of nicotinamide riboside and/or 30 mg of pterostilbene or resveratrol per Kg per day were administered to the mice.
This score was based on the scale of Weydt et al. (Neuroreport 14: 1051-1054, 2003). […] When the animals reached a score of “4”, the access to food and water was facilitated by placing food pellets on the cage floor to all transgenic mice. Reaching a score of “5”, the animals were euthanized for ethical reasons. […] Changes over time in the different groups were monitored weekly from week 8 (P50) to week 20 (P140).
This score was based on the SHIRPA tail scale, procedure developed by Rogers et al. (Mamm. Genome 8: 711-713, 1997) in the MRC, United Kingdom. […] Changes over time in the different groups were monitored weekly.
Functions of the test included evaluating balance, grip strength and motor coordination of the subjects; especially in testing the effect of experimental drugs. For this test (Rota Rod, Harvard Apparatus, Holliston, Mass.), each animal was given three trials and the maximum period (seconds) that it could remain on a rotating axle (3.5 cm diameter; speed of rotation: 15 rpm) without falling was measured. Each mouse was given up to three attempts for an arbitrary limit of 1200 seconds and the longest period was recorded. Changes over time in the different groups were monitored weekly.
Motor function and deficit in rodent models of CNS disorders were evaluated. […] Each mouse was given up to three attempts for a maximum of 180 seconds and the longest period was recorded. Changes over time in the different groups were monitored weekly.
For this locomotor rating test, a flat rolling band (Treadmill, Harvard Apparatus) was used and set at an angle of 5°. […] Each mouse was given two trials and the maximum distance run and the number of electrical stimuli received during the test (not exceeding 3 seconds) were recorded. […]

[3] = test system: transgenic SOD1 G93A mice; experiment: Survival time of SOD1 G93A mice (Kaplan-Meier); details: in words, oral 185 mg NR and/or 30 mg PT or R per Kg per day, FIG. 1-2
From the text: as §1, §2, §3

Row | Compound | motor action potential [1] | motor functions of SOD1 mice [2] | survival of SOD1 mice [3] | statistical comparison with the same group without R (SOD1 vs SOD1+R; SOD1+NR vs SOD1+NR+R) ([2]; Student's t-test)
1 | NC(=O)c1ccc[n+]([C@@H]2O[C@H](CO)[C@@H](O)[C@H]2O)c1 [NR, nicotinamide riboside] | preserving motor action potential | improved motor functions |  | 
2 | COc1cc(/C=C/c2ccc(O)cc2)cc(OC)c1 [PT, pterostilbene] |  | but not PT alone improved motor functions | did not improve survival | 
3 | Oc1ccc(C=Cc2cc(O)cc(O)c2)cc1 [Resveratrol, resveratrol, reference compound] |  | showed no benefit | showed no benefit | did not show significant differences
